According to article PMC10305617, “Sesquiterpene Coumarin Ethers with Selective Cytotoxic Activities from the Roots of Ferula huber-morathii Peşmen (Apiaceae) and Unequivocal Determination of the Absolute Stereochemistry of Samarcandin” (Pharmaceuticals, 2023):
Where two headings read alike, the source gives them in different places.

Tests used:
[1] = test system: caspase-9; experiment: Caspase-9 colorimetric activity assay in COLO 205 cells; assay type: cell-based, Human; conditions: COLO 205, 24 h, highest concentration (131.58 µM)
Description: (§1) The caspase-3, -8, and -9 activities were detected by following the protocol of the caspase-3, -8, -9 colorimetric assay kits (Biovision, K106, K113, K119, Mountain View, CA, USA). The cells treated with mogoltadone (5) for 24 h were harvested and lysed with a RIPA (50 mM Tris-HCl, pH 8.0, 150 mM NaCl, 1% Nonidet P-40, 0.5% sodium deoxycholate and 0.1% SDS) cell lysis buffer. The lysed cells were centrifuged at 22,000 g for 30 min and the supernatant was collected in a tube. The samples (200 µg protein) were incubated with caspase substrates (final concentration, 200 µM) at 37° C for 2 h and read on a microplate reader at 405 nm. The fold-increase in enzyme activity was detected by comparison with the untreated control.

[2] = test system: HUVEC; experiment: MTS cell viability (cytotoxic activity) assay, non-cancerous HUVEC; assay type: cell-based, Human; conditions: 72 h, mean ± SD, at least three experiments
Text: (§2) Human colorectal cancer (COLO 205, CCL-222), breast cancer (MCF-7, HTB-22), chronic myelogenous leukemia (K-562, CCL-243), and umbilical vein/vascular endothelium (HUVEC, CRL-1730) cell lines were obtained from the American Type Culture Collection. The COLO 205, MCF-7, K-562, and HUVEC cell lines were maintained in Roswell Park Memorial Institute ([…], Wisent, Montreal, QC, CANADA), Eagle′s Minimum Essential Medium (EMEM, Wisent, Montreal, QC, CANADA), Iscove’s Modified Dulbecco’s Medium (IMDM, Wisent, Montreal, QC, CANADA), and Dulbecco′s Modified Eagle Medium (DMEM, Wisent, Montreal, QC, CANADA) supplemented with 10% fetal bovine serum (Capricorn, Ebsdorfergrund, Germany), 100 U/mL penicillin, and 100 µg/mL streptomycin (Wisent, Montreal, QC, CANADA), respectively. All of the cell lines were cultured at 37 °C in a humidified atmosphere containing 5% CO2.
(§3) A 3-[4,5-dimethylthiazol-2-yl]-5-[3-carboxymethoxyphenyl]-2-[4-sulfophenyl]-2H-tetrazolium, inner salt (MTS) cell viability assay was performed to evaluate the cytotoxic activities of the sesquiterpene coumarin ethers isolated from Ferula huber-morathii. HUVEC (1 × 10^4), COLO 205 (3 × 10^4), K-562 (3 × 10^4), and MCF7 (5 × 10^4) were plated in 96-well plates. Then, 24 h later, the tested compounds were dissolved in DMSO, and the cells were exposed to the different concentrations (131.58–1.028 µM) of the compounds for 72 h. Cisplatin and doxorubicin were used as a positive control. Next, an MTS/phenazine methosulfate (PMS) (Promega, Madison, WI, USA and Sigma, St. Louis, MO, USA respectively) mixture was added to each well and incubated for 1–4 h at 37 °C. The absorbance was read on a microplate reader (Biotek, Winooski, VT, USA) at 490 nm. The cytotoxic activities of the compounds were expressed as an IC50 value. The % inhibition of cell proliferation was calculated using the formula: % Inhibition = [1-(A490test/A490cont)] × 100, where A490test = absorbance of the test sample and A490cont = absorbance of the control sample [88]. The values of the 50% inhibition of the cell proliferation (IC50) were calculated by locating the x-axis values corresponding to one-half of the absorbance values of the sample.

[3] = test system: K-562; experiment: MTS cell viability (cytotoxic activity) assay, K-562; assay type: cell-based, Human; conditions: for IC50: K-562, MTS, 72 h, mean ± SD, at least three experiments
Text: as §2, §3

[4] = test system: caspase-3; experiment: Caspase-3 colorimetric activity assay in COLO 205 cells; assay type: cell-based, Human; conditions: COLO 205, 24 h, highest concentration (131.58 µM)
Description: as §1

[5] = test system: K-562; experiment: MTS cell viability (cytotoxic activity) assay, K-562; assay type: cell-based, Human; conditions: K-562, MTS, 72 h; root extracts
[6] = test system: MCF-7; experiment: MTS cell viability (cytotoxic activity) assay, MCF-7; assay type: cell-based, Human; conditions: for IC50: MCF-7, MTS, 72 h, mean ± SD, at least three experiments
Text: as §2, §3

[7] = test system: caspase-8; experiment: Caspase-8 colorimetric activity assay in COLO 205 cells; assay type: cell-based, Human; conditions: COLO 205, 24 h, highest concentration (131.58 µM)
Description: as §1

[8] = test system: COLO 205; experiment: MTS cell viability (cytotoxic activity) assay, COLO 205; assay type: cell-based, Human; conditions: COLO 205, MTS, 72 h, mean ± SD, at least three experiments
Text: as §2, §3

[9] = test system: MCF-7; experiment: MTS cell viability (cytotoxic activity) assay, MCF-7; assay type: cell-based, Human; conditions: MCF-7, MTS, 72 h; root extracts
[10] = test system: ovarian (A2780); conditions: cited from earlier work
[11] = test system: colon (HCT116); conditions: cited from earlier work
[12] = test system: lung (A549); conditions: cited from earlier work
[13] = test system: chronic myelogenous leukemia (K562); conditions: cited from earlier work
[14] = test system: cervical (HeLa); conditions: cited from earlier work
[15] = test system: bladder cancer cells (5637); conditions: cited from earlier work
[16] = test system: stomach (AGS); parameters: method as in PMID 25843566, PMID 20961138, PMID 20628935, PMID 22351980, PMID 25818230; conditions: cited from earlier work
[17] = test system: COLO 205, K-562, MCF-7 and HUVEC cell lines; experiment: MTS cytotoxicity, overall verbal grading over the cell line panel; assay type: cell-based, Human; conditions: authors' verbal summary over COLO 205, K-562, MCF-7, HUVEC
Text: as §2, §3

[18] = test system: melanoma (SK-MEL-28); conditions: cited from earlier work
[19] = test system: Bcl-XL; experiment: Western blot, Bcl-XL protein level in HUVEC; assay type: cell-based, Human
[20] = test system: MCF-7 breast cancer cell line; conditions: cited from earlier work
[21] = test system: caspase-3; experiment: Western blot, caspase-3 protein level in HUVEC; assay type: cell-based, Human
Description: (§4) To evaluate the effect of mogoltadone (5) on the caspase-3, Bcl-XL and β-catenin protein levels, the COLO 205 cell line was treated with mogoltadone (5) and incubated for 24 h. At the end of the incubation period, the treated cells were harvested. After that, the harvested cells were washed with cold phosphate buffered saline and lysed in a RIPA buffer. The samples were centrifuged at 24,000 g for 45 min at 4° C, and the supernatants were used to determine the procaspase-3, Bcl-XL, β-catenin, and β-actin protein levels by western blot analysis. The cellular proteins were separated on sodium dodecyl sulfate-polyacrylamide gels (SDS-PAGE, AnyKD mini protean TGX precast protein gel, Bio-Rad, Hercules, CA, USA, 4569033). The separated proteins were transferred to the polyvinylidene difluoride (PVDF) membrane using the Trans-Blot Turbo transfer system (Bio-Rad). The membrane was then blocked with a 5% non-fat milk blocking buffer and consecutively incubated with rabbit monoclonal Bcl-XL antibody (1:20,000, ab17884, Abcam), rabbit monoclonal caspase-3 antibody (1:3000, ab3235, Abcam, Cambridge, MA, USA), rabbit monoclonal beta-actin antibody (1:10,000, M01263, BOSTER, Beijing, China), and rabbit polyclonal β-catenin antibody (1/5,000, ab264263, Abcam, Cambridge, MA, USA) overnight at 4° C. […]

[22] = test system: β-catenin; experiment: Western blot, β-catenin protein level in HUVEC; assay type: cell-based, Human
[23] = test system: Bcl-XL; experiment: Western blot, Bcl-XL protein level in COLO 205; assay type: cell-based, Human; conditions: COLO 205, 24 h
Description: as §4

[24] = test system: cisplatin-resistant derivatives of the human ovarian (A2780P A2780/RCIS); conditions: cited from earlier work
[25] = test system: procaspase-3; experiment: Western blot, procaspase-3 protein level in COLO 205; assay type: cell-based, Human; conditions: COLO 205, 24 h, significant at 131.58 µM
Description: as §4

[26] = test system: β-catenin; experiment: Western blot, β-catenin protein level in COLO 205; assay type: cell-based, Human; conditions: COLO 205, 24 h
Description: as §4

[27] = test system: ovarian carcinoma cells (CH1); parameters: method as in PMID 23701832; conditions: cited from earlier work
[28] = test system: breast (MDA-MB-231); parameters: method as in PMID 23701832, PMID 26503061, PMID 30944714, PMID 27002410, PMID 33676992; conditions: cited from earlier work
[29] = test system: colorectal (HT29); parameters: method as in PMID 23701832, PMID 26503061, PMID 30944714, PMID 27002410, PMID 33676992; conditions: read-out: cytotoxic activity HT29; cited from earlier work

N.N.[Cl][Pt][Cl] [Cisplatin, reference compound]
increase in caspase-9 activity compared with the control [1]: 2.07 fold
IC50 [2]: 40.7 ± 1.12 µM
IC50 [3]: 8.1 ± 0.25 µM
increase in caspase-3 activity compared with the control [4]: 6.73 fold
IC50 (µg/mL) K-562 [5]: 9.73 ± 0.30 µg/mL
IC50 [6]: 64.2 ± 5.25 µM
increase in caspase-8 activity compared with the control [7]: 1.8 fold
IC50 [8]: 112 ± 3.11 µM
IC50 (µg/mL) MCF-7 [9]: 35.52 ± 0.76 µg/mL

CC1=CC[C@@H]2C(C)(C)[C@H](O)CC[C@@]2(C)[C@@H]1COc1ccc2ccc(=O)oc2c1 [Feselol (3), feselol]
IC50 ([2]; Homo sapiens): 38.8 ± 0.83 µM
IC50 ([10]; ref Soltani et al. 67, read-out: cytotoxic activity A2780): 20 µM
IC50 ([3]; Homo sapiens, K562): 72.5 ± 0.74 µM
IC50 ([11]; HCT-116, ref Soltani et al. 67, read-out: cytotoxic activity HCT-116): 28 µM
IC50 ([12]; ref Soltani et al. 67, read-out: cytotoxic activity A549): 26 µM
cytotoxic activity on K562, in words [13]: did not show any cytotoxic activity
IC50 ([6]; Homo sapiens, MCF7): 36 ± 1.29 µM
cytotoxic activity on HeLa, in words [14]: did not show any cytotoxic activity
IC50 ([14]; ref Soltani et al. 67, read-out: cytotoxic activity HeLa): 35 µM
cytotoxic activity on bladder (TCC, 5637), in words ([15]; bladder (TCC, 5637)): did not show any cytotoxic activity
cytotoxic activity on stomach (AGS), in words [16]: did not show any cytotoxic activity
cytotoxicity in words [17]: moderate or strong cytotoxicity
IC50 ([8]; Homo sapiens): 38.4 ± 0.8 µM

C=C1CCC2C(C)(C)C(=O)CCC2(C)C1COc1ccc2ccc(=O)oc2c1 (centres unmarked) [Mogoltadone (5), mogoltadone]
increase in caspase-9 activity compared with the control [1]: 1.97 fold
cytotoxic activity against SK-MEL-28, in words ([18]; ref Valiahdi et al. 29): did not find any potent cytotoxic activity
effect on Bcl-XL protein level [19]: did not have a statistically significant effect
IC50 ([20]; read-out: cytotoxic effect MCF-7): > 100 µM
IC50 ([2]; Homo sapiens): > 200 µM
effect on caspase-3 protein level [21]: did not have a statistically significant effect
effect on β-catenin protein level [22]: did not have a statistically significant effect
selectivity index K-562 ([3]; HUVEC versus K-562): > 12.46
IC50 ([3]; Homo sapiens, K562): 21.1 ± 0.85 µM
increase in caspase-3 activity compared with the control [4]: 4.72 fold
cytotoxic activity against A549, in words ([12]; ref Valiahdi et al. 29): did not find any potent cytotoxic activity
effect on Bcl-XL level [23]: suppressed
effect of combination with cisplatin on cisplatin cytotoxicity ([24]; A2780/RCIS cells, combination with cisplatin): significantly enhanced the cisplatin cytotoxicity
IC50 ([24]; A2780/RCIS, read-out: cytotoxic effect A2780/RCIS): > 50 µM
selectivity index MCF-7 ([6]; HUVEC versus MCF-7): > 8.64
IC50 ([6]; Homo sapiens, MCF7): 30.4 ± 0.6 µM
effect on procaspase-3 level [25]: decreased
increase in caspase-8 activity compared with the control [7]: 2 fold
effect on β-catenin levels [26]: decreased
cytotoxicity in words [17]: moderate or strong cytotoxicity
cytotoxic effect against CH1, in words ([27]; ovarian carcinoma cell line (CH1)): moderate cytotoxic effects
IC50 ([8]; Homo sapiens): 31.71 ± 0.15 µM

CC1=CC[C@@H]2C(C)(C)C(=O)CC[C@@]2(C)[C@@H]1COc1ccc2ccc(=O)oc2c1 [Conferone (1), conferone]
cytotoxic activity MDA-MB-231 [28]: 30 µg/mL
IC50 ([18]; read-out: cytotoxic activity SK-MEL-28): 64 µM
IC50 ([20]; read-out: cytotoxic activity MCF-7): > 100 µM
IC50 ([2]; Homo sapiens): 46.1 ± 0.99 µM
IC50 ([10]; read-out: cytotoxic activity A2780): 32 µM
IC50 ([3]; Homo sapiens, K562): 55.5 ± 0.94 µM
IC50 ([11]; HCT116, read-out: cytotoxic activity HCT116): 32 µM
IC50 [29]: 20 µM
IC50 ([12]; read-out: cytotoxic activity A549): 38 µM
cytotoxic activity K562 [13]: 86.12 µg/mL
IC50 ([24]; A2780P A2780/RCIS, read-out: cytotoxic activity A2780P A2780/RCIS): 25 µM
IC50 ([6]; Homo sapiens, MCF7): 34 ± 0.68 µM
IC50 ([14]; read-out: cytotoxic activity HeLa): 38 µM
cytotoxic effect on bladder cancer cells (5637), in words [15]; 5637: no cytotoxic effect
cytotoxicity in words ([17]; listed as 1): moderate or strong cytotoxicity
cytotoxicity in words ([17]; listed as conferone (1)): moderate cytotoxic effect
IC50 ([27]; ovarian carcinoma cells (CH1)): 7.8 µM
IC50 ([8]; Homo sapiens): 27.6 ± 0.69 µM
